In US9346815B2, “5-chloro-2-difluoromethoxyphenyl pyrazolopyrimidine compounds, compositions and methods of use thereof” (Genentech, Inc., priority 2014, dated 2016):

Columns and labels:
[1] = molecular target: isolated recombinant JAK1 kinase domain (Homo sapiens (Human), UniProt P23458); test: JAK1 enzyme assay (Caliper LabChip, peptide phosphorylation); type: biochemical; conditions: isolated recombinant JAK1 kinase domain, 25 μM ATP
[2] = molecular target: isolated recombinant JAK2 kinase domain (Homo sapiens (Human), UniProt O60674); test: JAK2 enzyme assay (Caliper LabChip, peptide phosphorylation); type: biochemical; conditions: 25 μM ATP
Sequence of isolated recombinant JAK2 kinase domain (O60674 849-1124): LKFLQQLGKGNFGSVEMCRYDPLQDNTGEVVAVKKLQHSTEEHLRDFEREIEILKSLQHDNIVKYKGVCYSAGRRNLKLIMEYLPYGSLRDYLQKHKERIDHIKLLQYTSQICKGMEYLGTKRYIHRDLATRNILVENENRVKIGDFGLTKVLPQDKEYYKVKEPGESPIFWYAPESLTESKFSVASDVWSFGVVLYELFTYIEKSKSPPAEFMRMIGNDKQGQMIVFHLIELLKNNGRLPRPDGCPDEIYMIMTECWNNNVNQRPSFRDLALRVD

[3] = tested on: JAK1-dependent STAT6 phosphorylation downstream of IL-13 stimulation in BEAS-2B human bronchial epithelial cells; test: JAK1 pathway assay in BEAS-2B cells (IL-13-pSTAT6, MSD); type: cell-based; conditions: read-out: IL13-pSTAT6 EC50 (uM)_BEAS-2B
Description: JAK1 Pathway Assay in Cell Lines was Carried Out as Follows:
Inhibitor potency (EC50) was determined in cell-based assays designed to measure JAK1 dependent STAT phosphorylation.
In one assay approach, TF-1 human erythroleukemia cells obtained from the American Type Culture Collection (ATCC; Manassas, Va.) were used to measure JAK1-dependent STAT6 phosphorylation downstream of IL-13 stimulation. Prior to use in the assays, TF-1 cells were starved of GM-CSF overnight in OptiMEM medium (Life Technologies, Grand Island, N.Y.) supplemented with 0.5% charcoal/dextran stripped fetal bovine serum (FBS), 0.1 mM non-essential amino acids (NEAA), and 1 mM sodium pyruvate. The assays were run in 384-well plates in serum-free OptiMEM medium using 300,000 cells per well. In a second assay approach, BEAS-2B human bronchial epithelial cells obtained from ATCC were plated at 100,000 cells per well of a 96-well plate one day prior to the experiment. The BEAS-2B assay was run in complete growth medium (bronchial epithelial basal medium plus bulletkit; Lonza; Basel, Switzerland).
Test compounds were serially diluted 1:2 in DMSO and then diluted 1:50 in medium just before use. Diluted compounds were added to the cells, for a final DMSO concentration of 0.2%, and incubated for 30 min (for the TF-1 assay) or 1 hr (for the BEAS-2B assay) at 37° C. Then, cells were stimulated with human recombinant cytokine at their respective EC90 concentrations, as previously determined for each individual lot. Cells were stimulated with IL-13 (R&D Systems, Minneapolis, Minn.) for 15 min at 37° C. The TF-1 cell reactions were stopped by the direct addition of 10× lysis buffer (Cell Signaling Technologies, Danvers, Mass.), whereas the BEAS-2B cell incubations were halted by the removal of medium and addition of 1× lysis buffer. The resultant samples were frozen in the plates at −80° C. Compound mediated inhibition of STAT6 phosphorylation was measured in the cell lysates using MesoScale Discovery (MSD) technology (Gaithersburg, Md.).

Sequence of isolated recombinant JAK1 kinase domain (P23458 875-1153): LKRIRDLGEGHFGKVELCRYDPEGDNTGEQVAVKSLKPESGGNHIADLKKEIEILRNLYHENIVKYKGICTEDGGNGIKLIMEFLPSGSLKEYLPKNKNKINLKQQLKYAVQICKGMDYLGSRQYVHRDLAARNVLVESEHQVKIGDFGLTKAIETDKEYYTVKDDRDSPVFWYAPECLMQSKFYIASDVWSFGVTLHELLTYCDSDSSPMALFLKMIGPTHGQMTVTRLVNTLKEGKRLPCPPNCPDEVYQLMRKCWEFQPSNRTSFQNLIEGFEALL

Row | Structure (SMILES) | Ki [1] [nM] | Ki [2] [nM] | EC50 [3] [µM]
1 | CCOC(=O)C1CCN(CCN2CCN(C(=O)Cn3cc(NC(=O)c4cnn5cccnc45)c(-c4cc(Cl)ccc4OC(F)F)n3)CC2)CC1 [Example 334, ethyl 1-[2-[4-(2-[3-[5-chloro-2-(difluoromethoxy)phenyl]-4-[pyrazolo[1,5-a]pyrimidine-3-amido]-1H-pyrazol-1-yl]acetyl)piperazin-1-yl]ethyl]piperidine-4-carboxylate] | 0.69 | 1.81 | 0.0061
2 | O=C(Nc1cn(Cc2cn(C3CCN(C4CCOC4)CC3)nn2)nc1-c1cc(Cl)ccc1OC(F)F)c1cnn2cccnc12 (stereo not drawn) [Example 455, N-(3-(5-chloro-2-(difluoromethoxy)phenyl)-1-((1-(1-(tetrahydrofuran-3-yl)piperidin-4-yl)-1H-1,2,3-triazol-4-yl)methyl)-1H-pyrazol-4-yl)pyrazolo[1,5-a]pyrimidine-3-carboxamide] | 0.3 | 0.15 | 0.021
3 | O=C(O)CNC1CCN(CCn2cc(NC(=O)c3cnn4cccnc34)c(-c3cc(Cl)ccc3OC(F)F)n2)CC1 [Example 311, 2-[[1-(2-[3-[5-chloro-2-(difluoromethoxy)phenyl]-4-[pyrazolo[1,5-a]pyrimidine-3-amido]-1H-pyrazol-1-yl]ethyl)piperidin-4-yl]amino]acetic acid] | 1.25 | 0.73 | 2.6
4 | COC(=O)CNCCn1cc(NC(=O)c2cnn3cccnc23)c(-c2cc(Cl)ccc2OC(F)F)n1 [Example 386, methyl 2-[(2-[3-[5-chloro-2-(difluoromethoxy)phenyl]-4-[pyrazolo[1,5-a]pyrimidine-3-amido]-1H-pyrazol-1-yl]ethyl)amino]acetate] | 1.06 | 0.56 | 0.0297
5 | N#CC1CCN(C2CCN(C(=O)Cn3cc(NC(=O)c4cnn5cccnc45)c(-c4cc(Cl)ccc4OC(F)F)n3)CC2)CC1 [Example 462, N-(3-(5-chloro-2-(difluoromethoxy)phenyl)-1-(2-(4-cyano-1,4′-bipiperidin-1′-yl)-2-oxoethyl)-1H-pyrazol-4-yl)pyrazolo[1,5-a]pyrimidine-3-carboxamide] | 0.38 | 0.86 | 0.0108
6 | O=C(Nc1cn(CC(=O)N2CCN(CCN3CCOCC3)CC2)nc1-c1cc(Cl)ccc1OC(F)F)c1cnn2cccnc12 [Example 321, N-[3-[5-chloro-2-(difluoromethoxy)phenyl]-1-(2-[4-[2-(morpholin-4-yl)ethyl]piperazin-1-yl]-2-oxoethyl)-1H-pyrazol-4-yl]pyrazolo[1,5-a]pyrimidine-3-carboxamide] | 0.4 | 0.9 | 0.0133
7 | N#CC1(NC2CCN(C(=O)Cn3cc(NC(=O)c4cnn5cccnc45)c(-c4cc(Cl)ccc4OC(F)F)n3)CC2)CC1 [Example 436, N-(3-(5-chloro-2-(difluoromethoxy)phenyl)-1-(2-(4-(1-cyanocyclo-propylamino)piperidin-1-yl)-2-oxoethyl)-1H-pyrazol-4-yl)pyrazolo[1,5-a]pyrimidine-3-carboxamide] | 0.25 | 0.75 | 0.0103
8 | COC(=O)CCN(C)C1CCN(C(=O)Cn2cc(NC(=O)c3cnn4cccnc34)c(-c3cc(Cl)ccc3OC(F)F)n2)CC1 [Example 345, methyl 3-[[1-(2-[3-[5-chloro-2-(difluoromethoxy)phenyl]-4-[pyrazolo[1,5-a]pyrimidine-3-amido]-1H-pyrazol-1-yl]acetyl)piperidin-4-yl](methyl)amino]propanoate] | 0.59 | 1.47 | 0.0166
9 | CN(C)C(=O)CNC1CCN(C(=O)Cn2cc(NC(=O)c3cnn4cccnc34)c(-c3cc(Cl)ccc3OC(F)F)n2)CC1 [Example 401, N-(3-(5-chloro-2-(difluoromethoxy)phenyl)-1-(2-(4-(2-(dimethylamino)-2-oxoethylamino)piperidin-1-yl)-2-oxoethyl)-1H-pyrazol-4-yl)pyrazolo[1,5-a]pyrimidine-3-carboxamide] | 0.75 |  | 0.152
10 | N#CC1CCN(C2CCN(C(=O)Cn3cc(NC(=O)c4cnn5cccnc45)c(-c4cc(Cl)ccc4OC(F)F)n3)CC2)C1 (stereo not drawn) [Example 409, N-(3-(5-chloro-2-(difluoromethoxy)phenyl)-1-(2-(4-(3-cyanopyrrolidin-1-yl)piperidin-1-yl)-2-oxoethyl)-1H-pyrazol-4-yl)pyrazolo[1,5-a]pyrimidine-3-carboxamide] |  | 0.89 | 0.0196
11 | CN(C1CCN(C(=O)Cn2cc(NC(=O)c3cnn4cccnc34)c(-c3cc(Cl)ccc3OC(F)F)n2)CC1)[C@H]1CCOC1 [Example 442, N-(3-(5-chloro-2-(difluoromethoxy)phenyl)-1-(2-(4-(methyl((S)-tetrahydrofuran-3-yl)amino)piperidin-1-yl)-2-oxoethyl)-1H-pyrazol-4-yl)pyrazolo[1,5-a]pyrimidine-3-carboxamide] | 0.33 |  | 0.0194
12 | O=C(CN1CCCCC1)Cn1cc(NC(=O)c2cnn3cccnc23)c(-c2cc(Cl)ccc2OC(F)F)n1 [Example 418, N-(3-(5-chloro-2-(difluoromethoxy)phenyl)-1-(2-oxo-3-(piperidin-1-yl)propyl)-1H-pyrazol-4-yl)pyrazolo[1,5-a]pyrimidine-3-carboxamide] |  | 0.8 | 0.0609
13 | C[C@H](NCCn1cc(NC(=O)c2cnn3cccnc23)c(-c2cc(Cl)ccc2OC(F)F)n1)c1ccccc1 [Example 385, N-[3-[5-chloro-2-(difluoromethoxy)phenyl]-1-(2-[[(1S)-1-phenylethyl]amino]ethyl)-1H-pyrazol-4-yl]pyrazolo[1,5-a]pyrimidine-3-carboxamide] |  | 0.3 | 0.163
14 | CN(C1CCN(C(=O)Cn2cc(NC(=O)c3cnn4cccnc34)c(-c3cc(Cl)ccc3OC(F)F)n2)CC1)[C@@H]1CCOC1 [Example 432, N-(3-(5-chloro-2-(difluoromethoxy)phenyl)-1-(2-(4-(methyl((R)-tetrahydrofuran-3-yl)amino)piperidin-1-yl)-2-oxoethyl)-1H-pyrazol-4-yl)pyrazolo[1,5-a]pyrimidine-3-carboxamide] | 0.4 |  | 0.0326
15 | COC(=O)CCN1CCN(C(=O)Cn2cc(NC(=O)c3cnn4cccnc34)c(-c3cc(Cl)ccc3OC(F)F)n2)CC1 [Example 331, methyl 3-[4-(2-[3-[5-chloro-2-(difluoromethoxy)phenyl]-4-[pyrazolo[1,5-a]pyrimidine-3-amido]-1H-pyrazol-1-yl]acetyl)piperazin-1-yl]propanoate] | 0.39 |  | 0.0176
16 | O=C(Nc1cn(CCNCc2cccnc2)nc1-c1cc(Cl)ccc1OC(F)F)c1cnn2cccnc12 [Example 368, N-[3-[5-chloro-2-(difluoromethoxy)phenyl]-1-[2-[(pyridin-3-ylmethyl)amino]ethyl]-1H-pyrazol-4-yl]pyrazolo[1,5-a]pyrimidine-3-carboxamide] |  | 0.51 | 0.056
17 | CN1CCN(C/C=C/Cn2cc(NC(=O)c3cnn4cccnc34)c(-c3cc(Cl)ccc3OC(F)F)n2)CC1 [Example 395, N-[3-[5-chloro-2-(difluoromethoxy)phenyl]-1-[(2E)-4-(4-methylpiperazin-1-yl)but-2-en-1-yl]-1H-pyrazol-4-yl]pyrazolo[1,5-a]pyrimidine-3-carboxamide] | 1.29 |  | 0.0224
18 | CCOC(=O)CNC1CCN(C(=O)Cn2cc(NC(=O)c3cnn4cccnc34)c(-c3cc(Cl)ccc3OC(F)F)n2)CC1 [Example 364, ethyl 2-[[1-(2-[3-[5-chloro-2-(difluoromethoxy)phenyl]-4-[pyrazolo[1,5-a]pyrimidine-3-amido]-1H-pyrazol-1-yl]acetyl)piperidin-4-yl]amino]acetate] |  | 1.6 | 0.0952
19 | CN(CC1(C)OCCO1)C1CCN(C(=O)Cn2cc(NC(=O)c3cnn4cccnc34)c(-c3cc(Cl)ccc3OC(F)F)n2)CC1 [Example 438, N-(3-(5-chloro-2-(difluoromethoxy)phenyl)-1-(2-(4-(methyl((2-methyl-1,3-dioxolan-2-yl)methyl)amino)piperidin-1-yl)-2-oxoethyl)-1H-pyrazol-4-yl)pyrazolo[1,5-a]pyrimidine-3-carboxamide] | 0.59 |  | 0.015
20 | C[C@@H](NCCn1cc(NC(=O)c2cnn3cccnc23)c(-c2cc(Cl)ccc2OC(F)F)n1)c1ccccc1 [Example 384, N-[3-[5-chloro-2-(difluoromethoxy)phenyl]-1-(2-[[(1R)-1-phenylethyl]amino]ethyl)-1H-pyrazol-4-yl]pyrazolo[1,5-a]pyrimidine-3-carboxamide] |  | 0.23 | 0.139
